Data on 10 compounds can be found in ChEMBL document CHEMBL1201862, “PubChem BioAssay data set” (2004).

A short description of one test: cells. The test is classed as functional.
A short description of test [1]: Vero E6 cell cytotoxicity, dose response, cytotoxicity control for non-replicating M. tuberculosis project, secondary assay (AID 492998). The test is classed as functional, VeroE6. The note with it: Vero C1008.
A further test addresses Large T antigen (Simian virus 40, UniProt P03070). The test is classed as functional, Betapolyomavirus macacae.
The target of test [2] is Glucose-6-phosphate 1-dehydrogenase (Homo sapiens, UniProt P11413). Description: inhibition of Homo sapiens G6PD, dose series – biochemical, fluorescence, selectivity assay for P. falciparum G6PD inhibitor project, dose response (AID 504792). Format: functional.
Glucose-6-phosphate 1-dehydrogenase, sequence (P11413 whole entry): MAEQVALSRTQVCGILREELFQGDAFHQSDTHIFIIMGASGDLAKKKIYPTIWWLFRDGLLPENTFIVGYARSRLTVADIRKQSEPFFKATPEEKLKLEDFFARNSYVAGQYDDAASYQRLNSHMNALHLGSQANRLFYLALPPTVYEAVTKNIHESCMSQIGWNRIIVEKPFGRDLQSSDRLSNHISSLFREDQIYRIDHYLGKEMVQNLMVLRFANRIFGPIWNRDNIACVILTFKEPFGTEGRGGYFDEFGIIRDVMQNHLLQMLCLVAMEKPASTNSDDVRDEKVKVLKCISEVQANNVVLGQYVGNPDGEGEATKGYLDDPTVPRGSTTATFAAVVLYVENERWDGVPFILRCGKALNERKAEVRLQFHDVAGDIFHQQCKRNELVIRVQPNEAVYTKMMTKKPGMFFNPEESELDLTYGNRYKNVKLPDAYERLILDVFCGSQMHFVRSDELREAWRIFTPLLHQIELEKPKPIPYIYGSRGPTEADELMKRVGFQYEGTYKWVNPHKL
The next test addresses Genome polyprotein (dengue virus type 2, UniProt P29990). Description: flavivirus cap methylation enzyme inhibition – biochemical, confirmation dose response, primary screen (AID 588689). The test is classed as functional.
A further test addresses T1, Protein RecA (Mycobacterium tuberculosis, UniProt P9WHJ3).
T1 sequence (P9WHJ3 whole entry): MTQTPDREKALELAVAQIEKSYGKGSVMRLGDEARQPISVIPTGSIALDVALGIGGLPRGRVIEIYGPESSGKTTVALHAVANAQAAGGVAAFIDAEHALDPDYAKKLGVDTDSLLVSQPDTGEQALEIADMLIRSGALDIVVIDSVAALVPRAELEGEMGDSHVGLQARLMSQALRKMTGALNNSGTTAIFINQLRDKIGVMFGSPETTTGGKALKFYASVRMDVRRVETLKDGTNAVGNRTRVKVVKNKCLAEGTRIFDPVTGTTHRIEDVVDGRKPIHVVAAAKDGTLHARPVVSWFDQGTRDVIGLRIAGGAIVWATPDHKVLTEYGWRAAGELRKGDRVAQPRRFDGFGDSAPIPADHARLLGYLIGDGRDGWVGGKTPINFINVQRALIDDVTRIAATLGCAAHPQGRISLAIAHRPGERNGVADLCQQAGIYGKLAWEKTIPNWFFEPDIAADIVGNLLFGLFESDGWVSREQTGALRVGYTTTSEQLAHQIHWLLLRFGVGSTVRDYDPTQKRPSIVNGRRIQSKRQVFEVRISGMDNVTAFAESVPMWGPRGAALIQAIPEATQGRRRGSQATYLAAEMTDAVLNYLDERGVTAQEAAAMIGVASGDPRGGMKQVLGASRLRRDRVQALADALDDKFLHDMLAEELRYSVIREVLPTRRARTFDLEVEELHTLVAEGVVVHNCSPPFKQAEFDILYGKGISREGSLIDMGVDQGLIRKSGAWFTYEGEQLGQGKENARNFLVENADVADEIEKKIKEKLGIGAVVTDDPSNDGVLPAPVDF
Briefly: Fluorescence Cell-Free Homogeneous Dose Retest to Identify Inhibitors of RecA-Intein Splicing Activity. [Related pubchem assays (depositor defined):AID2097, AID2223, AID489010, AID492950]. The test is classed as functional.

Test [3] concerns the target T2, RNA-binding protein pos-1 (Caenorhabditis elegans, UniProt G5EF15).
T2 sequence (G5EF15 whole entry): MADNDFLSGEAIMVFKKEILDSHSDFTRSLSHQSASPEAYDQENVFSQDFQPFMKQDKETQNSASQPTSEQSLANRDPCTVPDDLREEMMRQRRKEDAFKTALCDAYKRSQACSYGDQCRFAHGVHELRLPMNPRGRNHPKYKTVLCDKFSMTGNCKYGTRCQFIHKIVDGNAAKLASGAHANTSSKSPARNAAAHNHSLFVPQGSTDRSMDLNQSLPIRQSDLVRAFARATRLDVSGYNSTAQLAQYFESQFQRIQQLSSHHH
Description: disruptors of C. elegans POS-1 RNA interaction – biochemical, fluorescence polarization, dose response (AID 1964).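 Also: purified POS-1 fused to maltose binding protein made in E. coli; potency of compounds blocking POS-1 binding to fluorescent RNA.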

Test [4] addresses T3, Replicative DNA helicase DnaB (Mycobacterium tuberculosis, UniProt P9WMR3).
T3 sequence (P9WMR3 whole entry): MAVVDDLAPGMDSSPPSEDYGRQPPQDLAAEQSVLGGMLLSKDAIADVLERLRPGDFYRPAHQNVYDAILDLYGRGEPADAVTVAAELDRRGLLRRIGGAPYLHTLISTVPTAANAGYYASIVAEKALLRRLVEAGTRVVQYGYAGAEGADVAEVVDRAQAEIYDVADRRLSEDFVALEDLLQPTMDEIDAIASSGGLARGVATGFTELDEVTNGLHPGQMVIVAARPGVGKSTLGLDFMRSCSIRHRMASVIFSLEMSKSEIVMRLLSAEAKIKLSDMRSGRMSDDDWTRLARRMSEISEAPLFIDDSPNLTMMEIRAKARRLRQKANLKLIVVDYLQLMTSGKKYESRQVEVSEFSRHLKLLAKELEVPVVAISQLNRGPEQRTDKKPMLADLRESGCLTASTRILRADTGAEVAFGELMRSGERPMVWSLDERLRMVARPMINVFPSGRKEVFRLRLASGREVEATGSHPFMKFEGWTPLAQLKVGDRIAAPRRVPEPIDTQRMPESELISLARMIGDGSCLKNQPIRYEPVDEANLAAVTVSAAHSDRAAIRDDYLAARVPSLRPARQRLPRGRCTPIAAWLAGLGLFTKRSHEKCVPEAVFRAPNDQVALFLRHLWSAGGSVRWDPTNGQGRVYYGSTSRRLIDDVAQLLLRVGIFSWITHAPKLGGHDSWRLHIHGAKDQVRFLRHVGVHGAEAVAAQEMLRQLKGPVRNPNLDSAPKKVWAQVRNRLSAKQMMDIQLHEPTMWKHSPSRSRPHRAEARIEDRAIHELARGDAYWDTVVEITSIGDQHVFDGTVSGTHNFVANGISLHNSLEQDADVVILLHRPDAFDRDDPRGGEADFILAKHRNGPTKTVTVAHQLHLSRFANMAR
Briefly: DnaB intein splicing inhibitors, dose response, biochemical, cell-free fluorescence (AID 449749). Format: functional.

Test [5] deals with T4, Zinc finger protein mex-5 (Caenorhabditis elegans, UniProt Q9XUB2).
T4 sequence (Q9XUB2 whole entry): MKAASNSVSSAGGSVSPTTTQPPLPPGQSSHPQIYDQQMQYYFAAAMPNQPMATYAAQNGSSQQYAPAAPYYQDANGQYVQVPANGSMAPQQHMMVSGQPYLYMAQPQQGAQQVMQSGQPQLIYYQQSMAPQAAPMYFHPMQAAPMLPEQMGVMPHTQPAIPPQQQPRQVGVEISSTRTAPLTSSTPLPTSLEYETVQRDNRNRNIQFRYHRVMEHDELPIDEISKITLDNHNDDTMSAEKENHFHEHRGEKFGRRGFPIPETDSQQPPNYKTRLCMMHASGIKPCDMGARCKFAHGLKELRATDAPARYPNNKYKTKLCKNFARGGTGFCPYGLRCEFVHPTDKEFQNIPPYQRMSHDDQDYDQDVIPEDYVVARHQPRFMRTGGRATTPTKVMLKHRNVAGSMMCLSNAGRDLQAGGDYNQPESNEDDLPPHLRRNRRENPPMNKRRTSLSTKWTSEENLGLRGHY
Briefly: potency of MEX-5 RNA-binding blockers – biochemical, C. elegans, fluorescence polarization, dose response (AID 1960).

For another test, the target named is Nonstructural protein 1 (Influenza A virus, UniProt Q194T2). The test is classed as functional, Influenza A virus (A/California/07/2009(H1N1)).
Nonstructural protein 1, sequence (Q194T2 whole entry): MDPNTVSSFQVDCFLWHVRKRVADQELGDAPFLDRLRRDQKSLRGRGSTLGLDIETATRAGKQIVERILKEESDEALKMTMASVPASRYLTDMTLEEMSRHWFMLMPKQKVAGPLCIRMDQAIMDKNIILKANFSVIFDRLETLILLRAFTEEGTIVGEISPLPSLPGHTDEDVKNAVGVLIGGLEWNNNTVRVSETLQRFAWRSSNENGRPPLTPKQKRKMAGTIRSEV
For test [6], the target named is T5, Histone-lysine N-methyltransferase NSD2 (Homo sapiens, UniProt O96028).
T5 sequence (O96028 whole entry): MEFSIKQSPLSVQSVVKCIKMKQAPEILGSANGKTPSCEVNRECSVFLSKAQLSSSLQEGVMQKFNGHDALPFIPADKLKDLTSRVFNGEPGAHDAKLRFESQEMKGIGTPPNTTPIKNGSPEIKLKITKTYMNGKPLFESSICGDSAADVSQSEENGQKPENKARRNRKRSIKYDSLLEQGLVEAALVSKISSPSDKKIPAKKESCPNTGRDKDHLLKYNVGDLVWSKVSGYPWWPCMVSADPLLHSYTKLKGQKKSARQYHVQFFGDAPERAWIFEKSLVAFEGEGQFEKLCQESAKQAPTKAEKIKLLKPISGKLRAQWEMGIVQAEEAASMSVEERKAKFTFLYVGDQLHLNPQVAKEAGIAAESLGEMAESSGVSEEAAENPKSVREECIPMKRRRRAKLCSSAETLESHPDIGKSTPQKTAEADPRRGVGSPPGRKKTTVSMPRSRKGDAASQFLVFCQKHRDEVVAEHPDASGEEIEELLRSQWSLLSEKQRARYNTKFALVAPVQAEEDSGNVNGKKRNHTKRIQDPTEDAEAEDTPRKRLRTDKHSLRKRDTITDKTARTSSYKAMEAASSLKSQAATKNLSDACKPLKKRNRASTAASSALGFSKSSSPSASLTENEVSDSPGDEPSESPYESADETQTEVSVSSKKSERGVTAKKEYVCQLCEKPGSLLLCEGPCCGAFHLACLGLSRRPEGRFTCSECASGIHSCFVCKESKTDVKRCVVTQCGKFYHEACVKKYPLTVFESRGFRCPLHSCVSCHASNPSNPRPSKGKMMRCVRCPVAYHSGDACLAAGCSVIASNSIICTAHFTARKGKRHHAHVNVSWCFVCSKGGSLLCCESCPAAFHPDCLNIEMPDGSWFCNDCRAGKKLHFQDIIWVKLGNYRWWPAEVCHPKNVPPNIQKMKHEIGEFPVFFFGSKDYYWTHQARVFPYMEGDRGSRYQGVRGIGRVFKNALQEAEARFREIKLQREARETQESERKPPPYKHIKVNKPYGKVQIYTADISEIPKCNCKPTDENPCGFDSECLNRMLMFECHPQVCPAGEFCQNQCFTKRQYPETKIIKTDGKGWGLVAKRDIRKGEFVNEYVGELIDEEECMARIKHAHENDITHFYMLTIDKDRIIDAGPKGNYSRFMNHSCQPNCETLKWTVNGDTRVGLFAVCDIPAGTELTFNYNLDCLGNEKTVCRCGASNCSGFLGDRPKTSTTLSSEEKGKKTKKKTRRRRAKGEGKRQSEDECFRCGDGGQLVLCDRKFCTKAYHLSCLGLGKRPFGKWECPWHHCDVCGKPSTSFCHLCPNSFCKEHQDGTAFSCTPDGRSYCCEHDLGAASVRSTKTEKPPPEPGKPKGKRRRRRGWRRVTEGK
Format: biochemical.

In test [7] the target is T6, Fatty acid synthase (Homo sapiens, UniProt P49327). Briefly: inhibition of human FAS-TE enzyme activity – biochemical, kinetic fluorescence intensity, dose response (AID 624326).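 Also: rate of fluorescence rise from hydrolysis of a fluorogenic O-methyl fluorescein ester substrate.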 The test is classed as functional.
T6 sequence (P49327 whole entry): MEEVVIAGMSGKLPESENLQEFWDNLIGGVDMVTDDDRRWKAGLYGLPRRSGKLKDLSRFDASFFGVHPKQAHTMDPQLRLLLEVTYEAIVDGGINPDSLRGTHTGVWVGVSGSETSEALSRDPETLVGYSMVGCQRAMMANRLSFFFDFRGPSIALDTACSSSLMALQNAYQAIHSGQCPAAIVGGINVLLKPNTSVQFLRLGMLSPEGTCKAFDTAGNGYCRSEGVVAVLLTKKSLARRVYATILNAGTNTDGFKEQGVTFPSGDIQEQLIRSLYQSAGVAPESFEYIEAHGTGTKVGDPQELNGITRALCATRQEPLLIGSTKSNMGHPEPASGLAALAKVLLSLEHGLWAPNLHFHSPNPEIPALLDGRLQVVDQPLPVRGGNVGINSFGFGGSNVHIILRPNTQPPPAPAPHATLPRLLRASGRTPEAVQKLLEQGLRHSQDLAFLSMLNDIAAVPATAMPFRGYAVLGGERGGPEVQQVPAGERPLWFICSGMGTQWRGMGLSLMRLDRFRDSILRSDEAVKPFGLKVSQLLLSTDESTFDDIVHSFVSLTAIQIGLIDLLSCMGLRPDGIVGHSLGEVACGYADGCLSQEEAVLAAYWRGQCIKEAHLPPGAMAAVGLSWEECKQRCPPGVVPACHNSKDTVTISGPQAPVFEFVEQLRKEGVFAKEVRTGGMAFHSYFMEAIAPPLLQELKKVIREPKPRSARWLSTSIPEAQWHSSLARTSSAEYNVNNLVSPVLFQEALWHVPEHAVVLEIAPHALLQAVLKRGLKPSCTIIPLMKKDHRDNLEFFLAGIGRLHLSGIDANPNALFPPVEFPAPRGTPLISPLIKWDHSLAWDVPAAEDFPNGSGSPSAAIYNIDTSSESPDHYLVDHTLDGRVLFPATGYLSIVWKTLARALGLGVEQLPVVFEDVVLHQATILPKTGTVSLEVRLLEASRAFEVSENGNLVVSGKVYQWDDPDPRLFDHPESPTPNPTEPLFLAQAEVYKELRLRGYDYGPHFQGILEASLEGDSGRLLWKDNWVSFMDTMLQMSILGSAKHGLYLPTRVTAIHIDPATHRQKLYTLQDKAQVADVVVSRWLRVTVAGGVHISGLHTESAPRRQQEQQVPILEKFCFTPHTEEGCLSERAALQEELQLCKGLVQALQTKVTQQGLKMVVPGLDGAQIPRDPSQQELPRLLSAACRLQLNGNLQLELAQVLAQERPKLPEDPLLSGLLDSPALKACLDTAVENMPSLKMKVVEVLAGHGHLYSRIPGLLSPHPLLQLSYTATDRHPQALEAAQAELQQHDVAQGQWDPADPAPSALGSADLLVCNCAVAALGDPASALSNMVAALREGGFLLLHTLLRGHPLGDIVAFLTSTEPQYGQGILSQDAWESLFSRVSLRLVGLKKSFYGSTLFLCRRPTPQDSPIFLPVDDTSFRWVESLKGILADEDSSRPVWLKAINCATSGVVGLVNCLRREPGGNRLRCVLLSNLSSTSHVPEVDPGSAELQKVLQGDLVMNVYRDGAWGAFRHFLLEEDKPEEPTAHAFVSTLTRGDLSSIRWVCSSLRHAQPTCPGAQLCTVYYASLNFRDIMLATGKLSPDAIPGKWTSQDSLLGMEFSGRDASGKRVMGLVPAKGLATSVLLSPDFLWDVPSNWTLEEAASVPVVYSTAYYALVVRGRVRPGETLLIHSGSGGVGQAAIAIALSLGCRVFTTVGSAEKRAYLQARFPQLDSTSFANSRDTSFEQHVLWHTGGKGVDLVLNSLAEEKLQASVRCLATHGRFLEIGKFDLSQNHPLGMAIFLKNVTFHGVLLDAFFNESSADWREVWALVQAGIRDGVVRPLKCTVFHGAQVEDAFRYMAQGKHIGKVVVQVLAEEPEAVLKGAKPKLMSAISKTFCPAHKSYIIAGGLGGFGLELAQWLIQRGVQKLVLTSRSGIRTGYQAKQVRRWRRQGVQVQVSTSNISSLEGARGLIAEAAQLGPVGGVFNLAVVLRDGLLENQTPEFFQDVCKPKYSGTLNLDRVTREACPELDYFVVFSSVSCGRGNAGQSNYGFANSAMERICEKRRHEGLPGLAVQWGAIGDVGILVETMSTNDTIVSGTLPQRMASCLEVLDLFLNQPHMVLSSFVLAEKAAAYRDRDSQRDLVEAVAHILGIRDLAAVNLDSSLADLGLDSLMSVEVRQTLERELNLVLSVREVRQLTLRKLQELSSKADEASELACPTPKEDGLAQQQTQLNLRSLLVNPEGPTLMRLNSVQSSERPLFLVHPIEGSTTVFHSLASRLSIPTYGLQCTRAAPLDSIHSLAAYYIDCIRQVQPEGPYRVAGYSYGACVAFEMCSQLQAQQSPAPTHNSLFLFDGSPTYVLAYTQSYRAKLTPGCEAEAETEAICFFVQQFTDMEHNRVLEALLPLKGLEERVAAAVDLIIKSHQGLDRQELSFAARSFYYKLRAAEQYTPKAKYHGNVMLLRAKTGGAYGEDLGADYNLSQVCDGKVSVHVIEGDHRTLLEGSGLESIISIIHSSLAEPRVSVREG
The target in test [8] is T6, Fatty acid synthase. Briefly: inhibition of human FAS-TE enzyme activity – biochemical, endpoint fluorescence intensity, uHTS hits, dose response (AID 624327).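 Also: fluorescence from hydrolysis of an O-methyl fluorescein acyl ester substrate by the enzyme.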 Format: functional.
Test [9] addresses Induced myeloid leukemia cell differentiation protein Mcl-1 (Homo sapiens, UniProt Q07820). The test is classed as functional.
Test [10] has as its target T7, Calpain-2 catalytic subunit (Sus scrofa, UniProt P43367).
T7 sequence (P43367 whole entry): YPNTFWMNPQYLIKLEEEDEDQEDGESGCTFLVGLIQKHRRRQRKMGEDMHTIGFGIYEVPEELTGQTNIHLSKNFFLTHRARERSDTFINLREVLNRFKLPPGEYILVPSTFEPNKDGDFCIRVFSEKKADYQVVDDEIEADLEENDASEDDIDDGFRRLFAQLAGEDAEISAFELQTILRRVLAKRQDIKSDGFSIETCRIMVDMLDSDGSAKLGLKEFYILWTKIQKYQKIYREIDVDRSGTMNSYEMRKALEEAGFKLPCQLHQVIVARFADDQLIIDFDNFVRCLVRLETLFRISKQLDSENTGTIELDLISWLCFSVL
Briefly: m-calpain protease blockers, concentration series – biochemical, fluorogenic peptide substrate, dose response (AID 1420). The test is classed as functional.

The source made the active and inactive calls. Some results are limits rather than exact numbers.

Large T antigen, sequence (P03070 whole entry): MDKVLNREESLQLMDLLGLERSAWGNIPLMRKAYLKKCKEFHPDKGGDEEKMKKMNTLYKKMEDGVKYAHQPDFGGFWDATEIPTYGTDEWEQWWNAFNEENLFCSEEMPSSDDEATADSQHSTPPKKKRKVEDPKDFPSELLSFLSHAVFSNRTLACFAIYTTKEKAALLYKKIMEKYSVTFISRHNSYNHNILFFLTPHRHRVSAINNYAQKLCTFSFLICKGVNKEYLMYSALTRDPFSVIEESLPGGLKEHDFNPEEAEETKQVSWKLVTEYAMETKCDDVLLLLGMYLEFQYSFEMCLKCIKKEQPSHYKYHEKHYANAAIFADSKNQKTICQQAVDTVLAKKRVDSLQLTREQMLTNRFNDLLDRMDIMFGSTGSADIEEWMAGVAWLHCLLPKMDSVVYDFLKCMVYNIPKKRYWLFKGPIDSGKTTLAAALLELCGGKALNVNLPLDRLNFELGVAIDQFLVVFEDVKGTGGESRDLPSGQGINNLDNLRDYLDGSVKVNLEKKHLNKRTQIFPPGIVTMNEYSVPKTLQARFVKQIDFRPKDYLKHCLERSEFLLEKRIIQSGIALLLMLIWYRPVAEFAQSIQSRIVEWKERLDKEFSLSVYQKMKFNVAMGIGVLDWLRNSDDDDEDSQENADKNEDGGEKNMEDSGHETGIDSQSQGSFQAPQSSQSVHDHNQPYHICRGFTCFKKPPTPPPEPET
Induced myeloid leukemia cell differentiation protein Mcl-1, sequence (Q07820 whole entry): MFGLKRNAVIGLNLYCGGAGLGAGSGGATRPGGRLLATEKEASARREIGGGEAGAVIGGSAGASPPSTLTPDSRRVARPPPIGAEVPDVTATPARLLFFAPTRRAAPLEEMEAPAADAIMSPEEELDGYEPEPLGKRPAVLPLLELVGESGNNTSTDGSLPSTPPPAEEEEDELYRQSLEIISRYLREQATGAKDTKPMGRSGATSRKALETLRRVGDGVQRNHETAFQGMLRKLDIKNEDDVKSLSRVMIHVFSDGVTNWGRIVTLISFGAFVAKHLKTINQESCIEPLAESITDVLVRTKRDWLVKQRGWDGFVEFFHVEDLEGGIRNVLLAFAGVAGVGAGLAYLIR

In the case of `O=C(CCNc1cccc(Cl)c1)c1ccco1`, the IC50 in “cells” is 18 µM (active). Further, in [1], the CC50 was 18.8 µM (active).

Regarding `OC[C@H]1O[C@@H](Oc2cc(O)cc(/C=C/c3ccc(O)cc3)c2)[C@H](O)[C@@H](O)[C@@H]1O` [PICEID], the IC50 at Large T antigen is 11.2 µM (active).

`Cc1ccc(C(=O)Nc2nnc(-c3ccncc3)o2)cc1`: the IC50 in the test “cells” was 8.2 µM (active). Besides, in [1], the cytotoxic concentration (CC50) was > 20 µM (active).

Regarding `Cc1c(C(=O)N(Cc2ccccc2Cl)C2CCS(=O)(=O)C2)oc2ccccc12` (stereo not given), in test [2], the IC50 is 40.3 µM (inactive).

With `CCN(CC)C(=O)c1ccc2c(c1)C1C(Cl)C(Sc3ccccc3[N+](=O)[O-])CC1C(C(=O)O)N2` (stereo not given), the IC50 on Genome polyprotein is 59.1 µM (active); at Large T antigen, 35.4 µM (active); at Nonstructural protein 1 it was 17.7 µM (active). In addition, the EC50 is 17 µM (active) on Protein RecA, > 300 µM (inconclusive) in test [3] and 15.4 µM (inconclusive) in test [5]. For the same compound, the AC50 in test [4] is 4.63 µM (active).

For the compound `CCN(CC)CCCCN1c2ccccc2Sc2ccccc21`, on Large T antigen, the 50% inhibitory concentration (IC50) is 14.2 µM (active).

`CSC1=NSC2=NC(=O)/C(=C\c3coc4ccccc4c3=O)C(=N)N12`: at Large T antigen, the IC50 was 67.1 µM (active). In test [6], the AC50 was 11.7 µM (active).

As for `COc1ccc(OCc2nnc3n2N=C(c2ccccc2)C(CC(=O)O)S3)cc1` (stereo not given), in [2], the IC50 was > 80 µM (inactive).

`Cc1nnc(Sc2cc(NCCO)c([N+](=O)[O-])c3nonc23)s1`: the 50% inhibitory concentration (IC50) is 5.35 µM (active) at Fatty acid synthase [7]; 6.34 µM (active) at Fatty acid synthase [8]; 6.12 µM (active) in test [9]; > 80 µM (inactive) in test [2]; > 50 µM (not active) in test [10]. Besides, the EC50 on Protein RecA is 12.4 µM (active). The AC50 in test [4] is 19.8 µM (inconclusive).

On to `COc1cc(N)c2ncccc2c1Cl`, for which the IC50 in [2] is 69.4 µM (inactive).
